Results reported in patent publication US6111132A, “Compounds and methods for synthesis and therapy” (priority 1998, dated 2000).

How the values were obtained:
Neuraminidase Flu A = assay: Neuraminidase inhibition in vitro, Flu A; assay type: biochemical, influenza virus A
From the text: Compositions of the invention are screened for inhibitory activity against neuraminidase by any of the conventional techniques for evaluating enzyme activity.
(§1) Useful in vitro screens have been described in detail and will not be elaborated here. However, von Itzstein, M. et al.; "Nature", 363(6428):418-423 (1993), in particular page 420, column 2, full paragraph 3, to page 421, column 2, first partial paragraph, describes a suitable in vitro assay of Potier, M.; et al.; "Analyt. Biochem.", 94:287-296 (1979), as modified by Chong, A. K. J.; et al.; "Biochem. Biophys. Acta", 1077:65-71 (1991); and Colman, P. M.; et al.; International Publication No. WO 92/06691 (Int. App. No. PCT/AU90/00501, publication date Apr. 30, 1992) page 34, line 13, to page 35, line 16, describes another useful in vitro screen.

Neuraminidase Flu B = Neuraminidase Flu B (Influenza B virus, UniProt P03474); assay: biochemical
From the text: Compositions of the invention are screened for inhibitory activity against neuraminidase by any of the conventional techniques for evaluating enzyme activity. Within the context of the invention, typically compositions are first screened for inhibition of neuraminidase in vitro and compositions showing inhibitory activity are then screened for activity in vivo.
as §1
Enzyme Inhibition: Using the methods of screening in vitro activity described above, the following activities were observed: […]

Neuraminidase Flu B, sequence (P03474 whole entry): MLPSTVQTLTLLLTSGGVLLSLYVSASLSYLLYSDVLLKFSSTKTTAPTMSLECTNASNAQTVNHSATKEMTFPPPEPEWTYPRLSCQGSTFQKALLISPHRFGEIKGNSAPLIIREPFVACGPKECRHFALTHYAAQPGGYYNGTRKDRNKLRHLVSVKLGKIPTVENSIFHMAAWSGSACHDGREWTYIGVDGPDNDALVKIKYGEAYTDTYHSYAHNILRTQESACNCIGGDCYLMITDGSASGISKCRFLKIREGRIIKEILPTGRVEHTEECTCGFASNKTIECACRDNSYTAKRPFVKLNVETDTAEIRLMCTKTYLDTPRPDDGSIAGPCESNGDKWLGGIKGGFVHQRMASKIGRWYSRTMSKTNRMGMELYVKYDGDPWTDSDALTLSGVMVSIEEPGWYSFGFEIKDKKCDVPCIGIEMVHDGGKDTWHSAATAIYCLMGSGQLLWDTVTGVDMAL

SMILES | IC50 (Neuraminidase Flu A) | IC50 (Neuraminidase Flu B)
CCCCN(C)[C@@H]1C=C(C(=O)O)C[C@H](N)[C@H]1NC(C)=O [Compound 5b] | 180 nM | –
CCC(CC)N(C)[C@@H]1C=C(C(=O)O)C[C@H](N)[C@H]1NC(C)=O [Compound 5c] | 6 nM | –
CCC(CC)CN(C)[C@@H]1C=C(C(=O)O)C[C@H](N)[C@H]1NC(C)=O [Compound 5d] | 120 nM | –
CC(=O)N[C@H]1[C@H](N(C)CCc2ccccc2)C=C(C(=O)O)C[C@@H]1N [Compound 5e] | 100 nM | –
CC(=O)N[C@H]1[C@H](N(C)C2CCCCC2)C=C(C(=O)O)C[C@@H]1N [Compound 5f] | 200 nM | –
CCCN(CC)[C@@H]1C=C(C(=O)O)C[C@H](N)[C@H]1NC(C)=O [Compound 5g] | 90 nM | –
CCCCN(CC)[C@@H]1C=C(C(=O)O)C[C@H](N)[C@H]1NC(C)=O [Compound 5h] | 85 nM | –
CCCN(CCC)[C@@H]1C=C(C(=O)O)C[C@H](N)[C@H]1NC(C)=O [Compound 5i] | 12 nM | –
CCCN(CC1CC1)[C@@H]1C=C(C(=O)O)C[C@H](N)[C@H]1NC(C)=O [Compound 5j] | 50 nM | –
CC(=O)N[C@H]1[C@H](N2CCCC2)C=C(C(=O)O)C[C@@H]1N [Compound 5k] | 400 nM | –
CC(=O)N[C@H]1[C@H](N2CCCCC2)C=C(C(=O)O)C[C@@H]1N [Compound 5l] | 30 nM | 3 nM
CC(=O)N[C@H]1[C@H](N2CCOCC2)C=C(C(=O)O)C[C@@H]1N [Compound 5m] | 200 nM | –
CCC(CC)N[C@@H]1C=C(C(=O)O)C[C@H](N)[C@H]1NC(C)=O [Compound 12a] | 11.5 nM | –
CCCN[C@@H]1C=C(C(=O)O)C[C@H](N)[C@H]1NC(C)=O [Compound 12b] | 200 nM | –
